Laboratory results reported in patent US20040142821A1, “Pesticide composition comprising malononitrile compounds” (priority 2001, published 2004).

Columns and labels:
Musca domestics = assay: Pesticidal test against Musca domestics, treated filter paper with sucrose bait (Test Example 5); format: in vivo; conditions: 500 ppm test liquid (Formulation Example 5), 0.7 ml on filter paper, ten female adults, after 24 hours
Experimental: Ten female adults of Musca domestics (house fly) were set free in the polyethylene cup, which was then kept covered. After 24 hours, their survival was examined to determine the mortality.

German cockroach = assay: Pesticidal test against German cockroach, treated filter paper with sucrose bait (Test Example 6); format: in vivo; conditions: Blattella germanica, 144 h; 500 ppm test liquid (Formulation Example 5), 0.7 ml on filter paper; two male adults; after 6 days
Source text: Two male adults of German cockroach (Blattalla germanica) were set free in the polyethylene cup, which was then kept covered. After 6 days, their survival was examined to determine the mortality.

Cullex pipiens pallens = assay: whole plant or invertebrate; conditions: 24 h
Experimental: In 100 ml of ion-exchanged water, the test liquid had been prepared as described above, was added dropwise in an amount of 0.7 ml (the concentration of active ingredient was 3.5 ppm). Twenty final-instar larvae of Cullex pipiens pallens (common mosquito) were set free in the solution. After 1 days, their survival was examined to determine the mortality.

[1] = tested on: Diabrotica undecimpunctata; assay: Pesticidal test against Diabrotica undecimpunctata, treated filter paper (Test Example 4); format: in vivo, Diabrotica undecimpunctata (southern-corn rootworm); conditions: 50 ppm test liquid (Formulation Example 1), 1 ml on filter paper; 30 to 50 eggs and one germinated corn seed; 25° C.
Experimental: One germinated seed of corn and 30 to 50 eggs of Diabrotica undecimpunctata (southern-corn rootworm) was placed on the filter paper in the polyethylene cup, which was then kept covered and left in a room at 25° C. On the 6th day after, the number of surviving larvae of Diabrotica undecimpunctata was examined.

SMILES | mortality at 500 ppm (Musca domestics) [%] | mortality at 500 ppm (German cockroach) [%] | mortality at 3.5 µg/mL (Cullex pipiens pallens) [%] | number of surviving pests on the 6th day after [1]
C=CC(C)C(C#N)(C#N)Cc1ccc(SC(F)(F)F)cc1 (stereo not shown) [Compound 47, 2-(1-methyl-2-propenyl)-2-(4-(trifluoromethylthio)benzyl)malononitrile] | 100 | 100 | 100 | 
C=CCCC(C#N)(C#N)Cc1ccc(C(F)(F)F)cc1 [Compound 52, 2-(3-butenyl)-2-(4-(trifluoromethyl)benzyl)malononitrile] | 100 | 100 | 100 | 
C=CCC(C#N)(C#N)C(C#N)c1ccc(OC(F)(F)F)cc1 (stereo not drawn) [Compound 55, 2-allyl-2-(4-(trifluoromethoxy)-α-cyanobenzyl)malononitrile] | 100 | 100 | 100 | 
C=CCC(C#N)(C#N)C(C#N)c1ccc(SC(F)(F)F)cc1 (stereo not drawn) [Compound 56, 2-allyl-2-(4-(trifluoromethylthio)-α-cyanobenzyl)malononitrile] | 100 | 100 | 100 | 
C=CCC(C#N)(C#N)Cc1ccc(C(F)(F)F)cc1C(F)(F)F [Compound 57, 2-allyl-2-(2,4-bis(trifluoromethyl)benzyl)malononitrile] | 100 | 100 | 100 | 
C=CCC(C#N)(C#N)Cc1ccc(C(F)(F)F)cc1Cl [Compound 58, 2-allyl-2-(2-chloro-4-(trifluoromethyl)benzyl)malononitrile] | 100 | 100 | 100 | 
CC#CCC(C#N)(C#N)Cc1ccc(OC(F)(F)F)cc1 [Compound 59, 2-(2-butynyl)-2-(4-(trifluoromethoxy)benzyl)malononitrile] | 100 | 100 | 100 | 
C=CCCC(C#N)(C#N)Cc1ccc(C(F)(F)F)cc1Cl [Compound 60, 2-(3-butenyl)-2-(2-chloro-4-(trifluoromethyl)benzyl)malononitrile] | 100 | 100 | 100 | 
C=CCC(C#N)(C#N)Cc1c(Cl)cc(C(F)(F)F)cc1Cl [Compound 64, 2-allyl-2-(2,6-dichloro-4-(trifluoromethyl)benzyl)malononitrile] | 100 | 100 | 100 | 
CC(C#N)(C#N)Cc1ccc(Cl)cc1 [Compound 68, 2-(4-chlorobenzyl)-2-methylmalononitrile] | 100 | 100 | 100 | 
C=CCC(C#N)(C#N)Cc1ccc(C(F)(F)F)c(F)c1 [Compound 69, 2-allyl-2-(3-fluoro-4-(trifluoromethyl)benzyl)malononitrile] | 100 | 100 | 100 | 
C=CCCCC(C#N)(C#N)C(C)c1ccc(Cl)cc1 (stereo not shown) [Compound 76, 2-(1-(4-chlorophenyl)ethyl)-2-(4-pentenyl)malononitrile] |  |  | 100 | 0
C=CCCCC(C#N)(C#N)Cc1ccc(C(F)(F)F)cc1 [Compound 79, 2-(4-pentenyl)-2-(4-(trifluoromethyl)benzyl)malononitrile] | 100 | 100 | 100 | 
C=CCC(C#N)(C#N)C(OC)c1ccc(Cl)cc1 (stereo not drawn) [Compound 84, 2-allyl-2-(4-chloro-α-methoxybenzyl)malononitrile] | 100 | 100 | 100 | 
C=CCC(C#N)(C#N)Cc1cccc(OC(F)(F)F)c1 [Compound 89, 2-allyl-2-(3-(trifluoromethoxy)benzyl)malononitrile] | 100 | 100 | 100 | 
C=CCC(C#N)(C#N)Cc1ccc(C(C)C)cc1 [Compound 102, 2-allyl-2-(4-isopropylbenzyl)malononitrile] | 100 | 100 | 100 | 
CCCCC(C#N)(C#N)Cc1ccc(C(F)(F)F)cc1 [Compound 109, 2-butyl-2-(4-(trifluoromethyl)benzyl)malononitrile] | 100 | 100 | 100 | 
CC(C)CC(C#N)(C#N)Cc1ccc(C(F)(F)F)cc1 [Compound 110, 2-(2-methylpropyl)-2-(4-(trifluoromethyl)benzyl)malononitrile] | 100 | 100 | 100 | 
C=CCC(C#N)(C#N)Cc1c(F)cc(F)cc1F [Compound 120, 2-allyl-2-(2,4,6-trifluorobenzyl)malononitrile] | 100 | 100 |  | 
